Measurements reported in patent publication US12091402B2 (Avilar Therapeutics, Inc., priority 2021, dated 2024).

What follows are molecules tested against T1, ASGPR (Homo sapiens, UniProt P07306) (assay: Affinity to ASGPR by surface plasmon resonance (SPR)).
T1 sequence (P07306 1-291): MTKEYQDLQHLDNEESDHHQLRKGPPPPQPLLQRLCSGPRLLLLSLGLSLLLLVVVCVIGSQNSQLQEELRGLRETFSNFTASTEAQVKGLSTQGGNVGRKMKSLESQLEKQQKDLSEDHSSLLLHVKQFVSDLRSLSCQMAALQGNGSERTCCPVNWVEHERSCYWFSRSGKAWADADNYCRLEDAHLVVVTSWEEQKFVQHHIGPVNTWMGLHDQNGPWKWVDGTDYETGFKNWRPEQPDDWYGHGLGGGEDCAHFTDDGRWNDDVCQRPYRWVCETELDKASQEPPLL

| Compound | Kd |
| --- | --- |
| [N-]=[N+]=NCCCCCC(=O)NC(COCCC(=O)NCCOCCOCCOCCOC[C@H]1OC[C@H](Nc2cncc(C(F)(F)F)n2)[C@@H](O)[C@H]1O)COCCC(=O)NCCOCCOCCOCCOC[C@H]1OC[C@H](Nc2cncc(C(F)(F)F)n2)[C@@H](O)[C@H]1O [A2, 3,3′-((2-(6-azidohexanamido)propane-1,3-diyl)bis(oxy))bis(N-(1-((2R,3R,4R,5S)-3,4-dihydroxy-5-((6-(trifluoromethyl)pyrazin-2-yl)amino)tetrahydro-2H-pyran-2-yl)-2,5,8,11-tetraoxatridecan-13-yl)propanamide)] | < 100 nM |
| CCOC(=O)c1cnc(C(F)(F)F)nc1N[C@H]1[C@H]2OC[C@](CO)(O2)[C@H](O)[C@@H]1O [A110, ethyl 4-(((1S,2R,3R,4R,5S)-2,3-dihydroxy-1-(hydroxymethyl)-6,8-dioxabicyclo[3.2.1]octan-4-yl)amino)-2-(trifluoromethyl)pyrimidine-5-carboxylate] | 1000 to 10000 nM |
| O[C@@H]1[C@H](O)[C@@H](Nc2cncc(C(F)(F)F)n2)CO[C@@H]1CNc1cnccn1 [A122] | < 1000 nM |
| [N-]=[N+]=NCCOCCOCCOCCOC[C@H]1OC[C@H](Nc2cncc(C(F)(F)F)n2)[C@@H](O)[C@H]1O [A21, (2R,3R,4R,5S)-2-(13-azido-2,5,8,11-tetraoxatridecyl)-5-((6-(trifluoromethyl)pyrazin-2-yl)amino)tetrahydro-2H-pyran-3,4-diol] | 100 to 500 nM |
| OC[C@@]12CO[C@@H](O1)[C@H](Nc1cccc(C(F)(F)F)n1)[C@@H](O)[C@H]2O [A87, (1S,2R,3R,4R,5S)-1-(hydroxymethyl)-4-((6-(trifluoromethyl)pyridin-2-yl)amino)-6,8-dioxabicyclo[3.2.1]octane-2,3-diol] | < 1000 nM |
| O=[N+]([O-])c1ccc(NCCOCCOCCOCCOC[C@H]2OC[C@@H](Nc3nc(Cl)ns3)[C@@H](O)[C@H]2O)c([N+](=O)[O-])c1 [Compound 24, (2R,3R,4R,5R)-5-((3-chloro-1,2,4-thiadiazol-5-yl)amino)-2-(13-((2,4-dinitrophenyl)amino)-2,5,8,11-tetraoxatridecyl)tetrahydro-2H-pyran-3,4-diol] | < 100 nM |
| O[C@@H]1[C@H](O)[C@@H](Nc2nccc(C(F)(F)F)n2)CO[C@@H]1c1nc2ccc(Br)cc2[nH]1 [A94, (2R,3R,4R,5S)-2-(6-bromo-1H-benzo[d]imidazol-2-yl)-5-((4-(trifluoromethyl)pyrimidin-2-yl)amino)tetrahydro-2H-pyran-3,4-diol] | > 20000 nM |
| NC(COCCC(=O)NCCOCCOCCOCCOC[C@H]1OC[C@H](Nc2nccc(C(F)(F)F)n2)[C@@H](O)[C@H]1O)COCCC(=O)NCCOCCOCCOCCOC[C@H]1OC[C@H](Nc2nccc(C(F)(F)F)n2)[C@@H](O)[C@H]1O [A13, 3,3′-((2-aminopropane-1,3-diyl)bis(oxy))bis(N-(1-((2R,3R,4R,5S)-3,4-dihydroxy-5-((4-(trifluoromethyl)pyrimidin-2-yl)amino)tetrahydro-2H-pyran-2-yl)-2,5,8,11-tetraoxatridecan-13-yl)propanamide)] | < 100 nM |
| [N-]=[N+]=NC[C@@]12CO[C@@H](O1)[C@H](Nc1nc(Cl)ns1)[C@@H](O)[C@H]2O [A74, (1S,2R,3R,4R,5S)-1-(azidomethyl)-4-((3-chloro-1,2,4-thiadiazol-5-yl)amino)-6,8-dioxabicyclo[3.2.1]octane-2,3-diol] | < 1000 nM |
| COc1cc(N[C@H]2[C@H]3OC[C@](CO)(O3)[C@H](O)[C@@H]2O)nc(C(F)(F)F)n1 [A47, (1S,2R,3R,4R,5S)-1-(hydroxymethyl)-4-((6-methoxy-2-(trifluoromethyl)pyrimidin-4-yl)amino)-6,8-dioxabicyclo[3.2.1]octane-2,3-diol] | < 1000 nM |
| OC[C@H]1OC[C@H](Nc2cc(C(F)(F)F)nc(Cl)n2)[C@@H](O)[C@H]1O [A78, (2R,3R,4R,5S)-5-((2-chloro-6-(trifluoromethyl)pyrimidin-4-yl)amino)-2-(hydroxymethyl)tetrahydro-2H-pyran-3,4-diol] | > 20000 nM |
| COCCO[C@@H]1O[C@H](CO)[C@H](O)[C@H](O)[C@H]1Nc1cncc(C(F)(F)F)n1 [A105, (2R,3R,4R,5R,6R)-2-(hydroxymethyl)-6-(2-methoxyethoxy)-5-((6-(trifluoromethyl)pyrazin-2-yl)amino)tetrahydro-2H-pyran-3,4-diol] | 1000 to 10000 nM |
| C[C@@H]1O[C@H](CO)[C@H](O)[C@H](O)[C@H]1Nc1nc(Cl)ns1 [A56, (2R,3R,4R,5R,6S)-5-((3-chloro-1,2,4-thiadiazol-5-yl)amino)-2-(hydroxymethyl)-6-methyltetrahydro-2H-pyran-3,4-diol] | 1000 to 10000 nM |
| C=CCO[C@H]1O[C@H](Cn2ccnn2)[C@H](O)[C@H](O)[C@H]1NC(=O)C(F)(F)F [A70, N-((2S,3R,4R,5R,6R)-6-((1H-1,2,3-triazol-1-yl)methyl)-2-(allyloxy)-4,5-dihydroxytetrahydro-2H-pyran-3-yl)-2,2,2-trifluoroacetamide] | < 1000 nM |
| COc1cccc(N(C)C[C@H]2OC[C@H](Nc3cncc(C(F)(F)F)n3)[C@@H](O)[C@H]2O)c1 [A106, (2R,3R,4R,5S)-2-(((3-methoxyphenyl)(methyl)amino)methyl)-5-((6-(trifluoromethyl)pyrazin-2-yl)amino)tetrahydro-2H-pyran-3,4-diol] | < 1000 nM |
| COc1cccc(-c2cn(C[C@H]3OC[C@H](Nc4nccc(C(F)(F)F)n4)[C@@H](O)[C@H]3O)nn2)c1 [A65, (2R,3R,4R,5S)-2-((4-(3-methoxyphenyl)-1H-1,2,3-triazol-1-yl)methyl)-5-((4-(trifluoromethyl)pyrimidin-2-yl)amino)tetrahydro-2H-pyran-3,4-diol] | < 1000 nM |
| OCc1cn(C[C@H]2OC[C@H](Nc3nccc(C(F)(F)F)n3)[C@@H](O)[C@H]2O)nn1 [A68, (2R,3R,4R,5S)-2-((4-(hydroxymethyl)-1H-1,2,3-triazol-1-yl)methyl)-5-((4-(trifluoromethyl)pyrimidin-2-yl)amino)tetrahydro-2H-pyran-3,4-diol] | < 1000 nM |
| O=C(NC[C@H]1OC[C@H](Nc2cncc(C(F)(F)F)n2)[C@@H](O)[C@H]1O)C12CC(C1)C2 [A102, N-(((2R,3R,4R,5S)-3,4-dihydroxy-5-((6-(trifluoromethyl)pyrazin-2-yl)amino)tetrahydro-2H-pyran-2-yl)methyl)bicyclo[1.1.1]pentane-1-carboxamide] | < 1000 nM |
| CN(c1nccc(C(F)(F)F)n1)[C@H]1CO[C@H](CO)[C@H](O)[C@@H]1O [A60, (2R,3R,4R,5S)-2-(hydroxymethyl)-5-(methyl(4-(trifluoromethyl)pyrimidin-2-yl)amino)tetrahydro-2H-pyran-3,4-diol] | 1000 to 10000 nM |
| OC[C@H]1OC[C@H](Nc2nccnc2C(F)(F)F)[C@@H](O)[C@H]1O [A101, (2R,3R,4R,5S)-2-(hydroxymethyl)-5-((3-(trifluoromethyl)pyrazin-2-yl)amino)tetrahydro-2H-pyran-3,4-diol] | 1000 to 10000 nM |
| C=CCO[C@H]1O[C@H](Cn2cc(CO)nn2)[C@H](O)[C@H](O)[C@H]1Nc1nccc(C(F)(F)F)n1 [A64, (2R,3R,4R,5R,6S)-6-(allyloxy)-2-((4-(hydroxymethyl)-1H-1,2,3-triazol-1-yl)methyl)-5-((4-(trifluoromethyl)pyrimidin-2-yl)amino)tetrahydro-2H-pyran-3,4-diol] | 1000 to 10000 nM |
| O=C(CCOCC(COCCC(=O)NCCOCCOCCOCCOC[C@H]1OC[C@H](Nc2nccc(C(F)(F)F)n2)[C@@H](O)[C@H]1O)NC(=O)COCCOCCOCC(=O)NCCN1C(=O)C=CC1=O)NCCOCCOCCOCCOC[C@H]1OC[C@H](Nc2nccc(C(F)(F)F)n2)[C@@H](O)[C@H]1O [A130] | < 100 nM |
| OC[C@H]1OC[C@H](Nc2ccc(F)c(C(F)(F)F)n2)[C@@H](O)[C@H]1O [A82, (2R,3R,4R,5S)-5-((5-fluoro-6-(trifluoromethyl)pyridin-2-yl)amino)-2-(hydroxymethyl)tetrahydro-2H-pyran-3,4-diol] | 1000 to 10000 nM |
| CN(C[C@H]1OC[C@H](Nc2cncc(C(F)(F)F)n2)[C@@H](O)[C@H]1O)c1ccccc1 [A99, (2R,3R,4R,5S)-2-((methyl(phenyl)amino)methyl)-5-((6-(trifluoromethyl)pyrazin-2-yl)amino)tetrahydro-2H-pyran-3,4-diol] | < 1000 nM |
| O=C(O)COCCOCCOCCOC[C@H]1OC[C@H](Nc2nccc(C(F)(F)F)n2)[C@@H](O)[C@H]1O [A25, 1-((2R,3R,4R,5S)-3,4-dihydroxy-5-((4-(trifluoromethyl)pyrimidin-2-yl)amino)tetrahydro-2H-pyran-2-yl)-2,5,8,11-tetraoxatridecan-13-oic acid] | 100 to 500 nM |
| OCc1cnn(C[C@H]2OC[C@H](Nc3nccc(C(F)(F)F)n3)[C@@H](O)[C@H]2O)c1 [A62, (2R,3R,4R,5S)-2-((4-(hydroxymethyl)-1H-pyrazol-1-yl)methyl)-5-((4-(trifluoromethyl)pyrimidin-2-yl)amino)tetrahydro-2H-pyran-3,4-diol] | 1000 to 10000 nM |
| Cc1cc(C#N)nc(N[C@H]2[C@H]3OC[C@](CO)(O3)[C@H](O)[C@@H]2O)n1 [A38, 2-[[(1S,2R,3R,4R,5S)-2,3-dihydroxy-1-(hydroxymethyl)-6,8-dioxabicyclo[3.2.1]octan-4-yl]amino]-6-methyl-pyrimidine-4-carbonitrile] | 1000 to 10000 nM |
| OC[C@@]12CO[C@@H](O1)[C@H](Nc1cc(Cl)cnc1Cl)[C@@H](O)[C@H]2O [A44, (1S,2R,3R,4R,5S)-4-[(2,5-dichloro-3-pyridyl)amino]-1-(hydroxymethyl)-6,8-dioxabicyclo[3.2.1]octane-2,3-diol] | < 1000 nM |
| OC[C@@]12CO[C@@H](O1)[C@H](Nc1nc3ccccc3o1)[C@@H](O)[C@H]2O [A45, (1S,2R,3R,4R,5S)-4-(benzo[d]oxazol-2-ylamino)-1-(hydroxymethyl)-6,8-dioxabicyclo[3.2.1]octane-2,3-diol] | 1000 to 10000 nM |
